The values that follow come from article PMC7246923, “Inhibition of Xanthine Oxidase-Catalyzed Xanthine and 6-Mercaptopurine Oxidation by Flavonoid Aglycones and Some of Their Conjugates” (International Journal of Molecular Sciences, 2020).

In assay [1] the target is T1, Xanthine oxidase (XO; from bovine milk) (Bos taurus, UniProt P80457).
T1 construct: Xanthine oxidase (XO; from bovine milk); purchased Sigma-Aldrich; host or cells: bovine milk
Briefly: XO-catalyzed xanthine oxidation (uric acid formation), HPLC. The format is biochemical. Particulars: for IC50 (xanthine)/IC50 (6MP): ratio of IC50 values of xanthine and 6MP assays; for IC50: substrate xanthine 5 μM, inhibitor 0–20 μM. The method, then:
(§1) Chrysin-7-glucuronide (C7G) and 6-thiouric acid were purchased from Carbosynth (Berkshire, UK). Chrysin-7-sulfate (C7S) was synthetized as described. Stock solutions of flavonoids (each 2 mM) were prepared in dimethyl sulfoxide (DMSO) and stored at −20 °C.
(§2) To test the inhibitory effects of flavonoids and their metabolites on the XO-catalyzed oxidation of xanthine and 6MP, the previously reported methods were applied without modifications. […] In each experiment, solvent controls (DMSO) were used. Metabolite formation (% of control) was plotted vs. the inhibitor concentrations in decimal logarithmic scale. IC50 values were evaluated by sigmoidal fitting, employing GraphPad Prism 8 software (San Diego, CA, USA).
(§3) After the in vitro XO assays, xanthine and uric acid as well as 6MP and 6-thiouric acid were quantified by the HPLC-UV methods described in our previous report, without any modifications.

Assay [2] has as its target T1, Xanthine oxidase (XO; from bovine milk). Briefly: XO-catalyzed 6-mercaptopurine oxidation (6-thiouric acid formation), HPLC. The format is biochemical. The procedure: as §1, §2, §3
In another assay the test system is hyperuricaemic mice. Conditions: cited from earlier work; for serum uric acid levels: orally administered; for serum uric acid concentrations: hyperuricemic mice, per os, API 50 and 100 mg/kg, KAE 50 and 100 mg/kg, LUT 100 mg/kg.
A further assay concerns normal mice. Also on record: method as in PMID 17666819. Conditions: per os; cited from earlier work.
The mark [3] stands for this setting: substrate 6MP 5 μM, inhibitor 0–20 μM, read-out: IC50(6MP).
[4] abbreviates: hyperuricaemic mice, LUT 16–100 mg/kg, LUT-7-O-glucoside 50 and 100 mg/kg.

Where two headings read alike, the source gives them in different places.

T1 sequence (P80457 whole entry): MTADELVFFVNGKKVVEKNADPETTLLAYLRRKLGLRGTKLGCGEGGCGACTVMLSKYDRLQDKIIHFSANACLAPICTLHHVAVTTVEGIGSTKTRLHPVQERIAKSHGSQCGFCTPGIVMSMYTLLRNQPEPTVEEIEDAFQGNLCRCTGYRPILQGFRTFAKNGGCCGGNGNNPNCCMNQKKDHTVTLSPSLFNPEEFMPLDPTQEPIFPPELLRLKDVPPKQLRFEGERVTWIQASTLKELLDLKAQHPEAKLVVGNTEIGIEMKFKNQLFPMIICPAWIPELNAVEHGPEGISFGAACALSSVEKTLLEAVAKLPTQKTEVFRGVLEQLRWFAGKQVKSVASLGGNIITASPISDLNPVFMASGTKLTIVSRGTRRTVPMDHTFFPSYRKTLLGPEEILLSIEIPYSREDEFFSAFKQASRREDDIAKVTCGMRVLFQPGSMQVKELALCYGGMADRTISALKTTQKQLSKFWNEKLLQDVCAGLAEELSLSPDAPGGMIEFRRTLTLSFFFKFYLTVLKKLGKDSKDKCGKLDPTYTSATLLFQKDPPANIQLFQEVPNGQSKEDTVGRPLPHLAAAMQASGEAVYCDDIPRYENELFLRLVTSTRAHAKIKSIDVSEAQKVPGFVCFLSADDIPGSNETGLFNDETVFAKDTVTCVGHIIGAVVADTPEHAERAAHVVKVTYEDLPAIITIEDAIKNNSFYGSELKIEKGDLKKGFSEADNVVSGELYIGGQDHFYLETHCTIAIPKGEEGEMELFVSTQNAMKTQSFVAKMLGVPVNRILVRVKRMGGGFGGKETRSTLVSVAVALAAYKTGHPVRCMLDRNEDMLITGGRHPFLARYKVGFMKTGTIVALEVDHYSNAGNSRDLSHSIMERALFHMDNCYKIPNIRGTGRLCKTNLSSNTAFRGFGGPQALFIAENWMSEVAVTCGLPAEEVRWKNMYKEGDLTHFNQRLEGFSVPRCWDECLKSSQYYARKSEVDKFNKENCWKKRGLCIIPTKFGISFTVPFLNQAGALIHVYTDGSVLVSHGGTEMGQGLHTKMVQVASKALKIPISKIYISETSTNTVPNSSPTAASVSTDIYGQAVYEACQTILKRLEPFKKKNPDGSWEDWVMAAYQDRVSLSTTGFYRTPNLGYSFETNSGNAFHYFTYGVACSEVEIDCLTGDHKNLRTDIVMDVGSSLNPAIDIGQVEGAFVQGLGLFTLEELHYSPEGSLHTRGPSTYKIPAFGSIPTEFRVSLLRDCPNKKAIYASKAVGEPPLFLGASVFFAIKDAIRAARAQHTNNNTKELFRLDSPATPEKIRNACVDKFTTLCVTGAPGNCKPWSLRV

Consider `O=c1cc(-c2ccc(O)cc2)oc2cc(O)cc(O)c12` [Apigenin, 5,7,4’-trihydroxyflavone], for which the “IC50 (xanthine)/IC50 (6MP)” value in assay [1] stood at 3.00. Moreover, the half-inhibitory concentration (IC50) in assay [1] is 270 nM; in assay [2] (setting [3]), 90 nM; in assay [2] (substrate 6MP 5 μM, read-out: IC50 values on 6MP oxidation) it was below 100 nM. The “serum uric acid levels” value in the assay on hyperuricaemic mice (hyperuricaemic mice, API 175–700 mg/kg) was “did not affect”. Also, in the assay with hyperuricaemic mice, the “serum uric acid concentrations” value is listed as “significantly decreased”.

Turning to `O=c1cc(-c2ccccc2)oc2cc(O)cc(O)c12` [Chrysin, 5,7-dihydroxyflavone], the “IC50 (xanthine)/IC50 (6MP)” value in assay [1] was determined as 3.18. The IC50 in assay [2] came out at 220 nM.

As for `O=C(O)[C@H]1O[C@@H](Oc2cc(O)c3c(=O)cc(-c4ccccc4)oc3c2)[C@H](O)[C@@H](O)[C@@H]1O` [Chrysin-7-glucuronide, chrysin-7-glucuronide], the 50% inhibitory concentration (IC50) in assay [1] and in assay [2] (setting [3]) was above 20000 nM in each case.

In the case of `O=c1cc(-c2ccccc2)oc2cc(OS(=O)(=O)O)cc(O)c12` [Chrysin-7-sulfate, chrysin-7-sulfate], the figures for the half-maximal inhibitory concentration (IC50) in assay [1] and in assay [2] (setting [3]) were above 20000 nM and 2230 nM, respectively.

Regarding `O=c1c(O)c(-c2ccc(O)c(O)c2)oc2cc(O)ccc12` [Fisetin, 3,7,3′,4′-tetrahydroxyflavone], in assay [1], the “IC50 (xanthine)/IC50 (6MP)” value was 0.78 and the midpoint of inhibition, the IC50, lay at 860 nM. Moreover, the half-inhibitory concentration (IC50) in assay [2] (setting [3]) was 1100 nM.

As for `COc1cc(-c2oc3cc(O)ccc3c(=O)c2O)ccc1O` [Geraldol, 3’-O-methylfisetin], the “IC50 (xanthine)/IC50 (6MP)” value in assay [1] was determined as 0.57. The IC50 in assay [1] is 680 nM; in assay [2] (setting [3]), 1190 nM.

For the compound `O=c1c(O)c(-c2ccc(O)cc2)oc2cc(O)cc(O)c12` [Kaempferol, 3,5,7,4′-tetrahydroxyflavone], in the assay with normal mice, the uric acid levels entry is listed as “decreased”. Further, in the assay with hyperuricaemic mice, the “serum uric acid concentrations” value is reported as “significantly decreased”.

Turning to `O=c1cc(-c2ccc(O)c(O)c2)oc2cc(O[C@@H]3O[C@H](CO)[C@@H](O)[C@H](O)[C@H]3O)cc(O)c12` [LUT-7-O-glucoside], the “serum uric acid levels” value in the assay on hyperuricaemic mice (setting [4]) is reported as “did not affect”.

Turning to `O=c1cc(-c2ccc(O)c(O)c2)oc2cc(O)cc(O)c12` [Luteolin, 5,7,3′,4′-tetrahydroxyflavone], in assay [1], the “IC50 (xanthine)/IC50 (6MP)” value came out at 0.59 and the IC50 was 160 nM. For the same compound, in assay [2] (setting [3]), the concentration for half-maximal inhibition (IC50) is 270 nM. Besides, the uric acid levels result in the assay with hyperuricaemic mice (hyperuricaemic mice, i.p. administration, 50 mg/kg) is given as “slight but significant decrease”. Besides, the “serum uric acid levels” value in the assay with hyperuricaemic mice (setting [4]) is “did not affect”. In the assay with hyperuricaemic mice, the “serum uric acid concentrations” value was “significantly decreased”.

In general, IC50 refers to the concentration that inhibits the measured activity by half.
